Assay results taken from ChEMBL document CHEMBL5634178, “Precursor-Directed Biosynthesis of Neoantimycin Derivatives with Selective Cytotoxicity” (J Nat Prod, 2024).

How the values were obtained:
[1] = Cytotoxicity against human NCM460 cells assessed as reduction in cell viability incubated for 72 hrs by CCK-8 assay; format: toxicity, cell-based
DLD-1 = assay: Cytotoxicity against human DLD-1 cells expressing K-Ras G13D mutant assessed as reduction in cell viability incubated for 72 hrs by CCK-8 assay; format: functional, cell-based; conditions: DLD-1, 72 h
HT-29 = assay: Cytotoxicity against wild type human HT-29 cells assessed as reduction in cell viability incubated for 72 hrs by CCK-8 assay; format: functional, cell-based; conditions: HT-29, 72 h
NCI-H1299 = assay: Cytotoxicity against human NCI-H1299 cells expressing N-ras mutant assessed as reduction in cell viability incubated for 72 hrs by CCK-8 assay; format: functional, cell-based; conditions: NCI-H1299, 72 h
NCI-H460 = assay: Cytotoxicity against human NCI-H460 cells expressing K-Ras Q61H mutant assessed as reduction in cell viability incubated for 72 hrs by CCK-8 assay; format: functional, cell-based; conditions: NCI-H460, 72 h
A549 = assay: Cytotoxicity against human A549 cells expressing K-Ras […] mutant assessed as reduction in cell viability incubated for 72 hrs by CCK-8 assay; format: functional, cell-based; conditions: A549, 72 h
SW-620 = assay: Cytotoxicity against human SW620 cells expressing K-Ras G12V mutant assessed as reduction in cell viability incubated for 72 hrs by CCK-8 assay; format: functional, cell-based; conditions: SW-620, 72 h

| Structure (SMILES) | IC50 at 72 h [1] | IC50 (DLD-1) | IC50 (HT-29) | IC50 (NCI-H1299) | IC50 (NCI-H460) | IC50 (A549) | IC50 (SW-620) |
| --- | --- | --- | --- | --- | --- | --- | --- |
| CC[C@H](C)[C@@H]1OC(=O)C(C)(C)C(=O)[C@H](Cc2ccccc2)OC(=O)[C@H](C(C)C)OC(=O)[C@@H](NC(=O)c2cccc(O)c2)[C@@H](C)OC1=O | > 20 µM | > 20 µM | > 20 µM | 3.1 µM | 17.9 µM | > 20 µM | 1.3 µM |
| CC[C@H](C)[C@@H]1OC(=O)C(C)(C)C(=O)[C@@H](Cc2ccccc2)OC(=O)[C@H](C(C)C)OC(=O)[C@@H](NC(=O)c2ccccc2)[C@@H](C)OC1=O | > 20 µM | 0.07 µM | > 20 µM | 4.5 µM | 1.6 µM | 0.33 µM | 0.04 µM |
| CC[C@H](C)[C@@H]1OC(=O)C(C)(C)C(=O)[C@H](Cc2ccccc2)OC(=O)[C@H](C(C)C)OC(=O)[C@@H](NC(=O)c2cccc(F)c2)[C@@H](C)OC1=O | > 20 µM | 3.5 µM | > 20 µM | > 20 µM | > 20 µM | > 20 µM | 1.1 µM |
| CC[C@H](C)[C@@H]1OC(=O)C(C)(C)C(=O)[C@@H](Cc2ccccc2)OC(=O)[C@H](C(C)C)OC(=O)[C@@H](NC(=O)c2cccc(O)c2)[C@@H](C)OC1=O | > 20 µM | > 20 µM | > 20 µM | > 20 µM | > 20 µM | 10.1 µM | 1.9 µM |
| CC[C@H](C)[C@@H]1OC(=O)C(C)(C)C(=O)[C@@H](Cc2ccccc2)OC(=O)[C@H](C(C)C)OC(=O)[C@@H](NC(=O)c2cccc(F)c2)[C@@H](C)OC1=O | > 20 µM | 2.7 µM | > 20 µM | > 20 µM | 8.8 µM | 11.2 µM | 0.33 µM |
| CC[C@H](C)[C@@H]1OC(=O)C(C)(C)C(=O)[C@H](Cc2ccccc2)OC(=O)[C@H](C(C)C)OC(=O)[C@@H](NC(=O)c2ccccc2)[C@@H](C)OC1=O | > 20 µM | 1.9 µM | > 20 µM | > 20 µM | > 20 µM | > 20 µM | 0.36 µM |
| CC[C@H](C)[C@@H]1OC(=O)C(C)(C)C(=O)[C@@H](Cc2ccccc2)OC(=O)[C@H](C(C)C)OC(=O)[C@@H](NC(=O)c2ccccc2O)[C@@H](C)OC1=O | 6.6 µM | 2.8 µM | > 20 µM | > 20 µM | 4.4 µM | 9.7 µM | 0.33 µM |
| CC[C@H](C)[C@@H]1OC(=O)C(C)(C)[C@@H](O)[C@@H](Cc2ccccc2)OC(=O)[C@H](C(C)C)OC(=O)[C@@H](NC(=O)c2cccc(NC=O)c2O)[C@@H](C)OC1=O | 0.00024 µM | 0.059 µM | 0.0006 µM | 0.0105 µM | 0.316 µM | 4e-05 µM | 0.0038 µM |
| CC[C@H](C)[C@@H]1OC(=O)C(C)(C)C(=O)[C@H](Cc2ccccc2)OC(=O)[C@H](C(C)C)OC(=O)[C@@H](NC(=O)c2ccccc2F)[C@@H](C)OC1=O | > 20 µM | 2.6 µM | 9.4 µM | > 20 µM | > 20 µM | > 20 µM | 0.56 µM |
| CC[C@H](C)[C@@H]1OC(=O)C(C)(C)C(=O)[C@@H](Cc2ccccc2)OC(=O)[C@H](C(C)C)OC(=O)[C@@H](NC(=O)c2ccccc2F)[C@@H](C)OC1=O | > 20 µM | 0.6 µM | > 20 µM | 3.3 µM | 1.3 µM | 4.3 µM | 0.14 µM |
